In patent US11780893B2, “Kv1.3 blockers” (Zealand Pharma A/S, priority 2019, dated 2023):
Bridge positions count the residues as written; N and C are the ends. Square brackets hold non-standard residues; d marks the D form. Peptide text beside a SMILES is read from it. Nle = CCCC[C@H](N)C(=O)O

molecular target: T1, human Kv1.3 voltage-gated K+ channel (Homo sapiens, UniProt P22001); assay: cell-based; details: inhibition of thallium flux, CHO-DUKX cells with human Kv1.3; read-out: IC50
T1 construct: host or cells: CHO-DUKX
T1 sequence (P22001 whole entry): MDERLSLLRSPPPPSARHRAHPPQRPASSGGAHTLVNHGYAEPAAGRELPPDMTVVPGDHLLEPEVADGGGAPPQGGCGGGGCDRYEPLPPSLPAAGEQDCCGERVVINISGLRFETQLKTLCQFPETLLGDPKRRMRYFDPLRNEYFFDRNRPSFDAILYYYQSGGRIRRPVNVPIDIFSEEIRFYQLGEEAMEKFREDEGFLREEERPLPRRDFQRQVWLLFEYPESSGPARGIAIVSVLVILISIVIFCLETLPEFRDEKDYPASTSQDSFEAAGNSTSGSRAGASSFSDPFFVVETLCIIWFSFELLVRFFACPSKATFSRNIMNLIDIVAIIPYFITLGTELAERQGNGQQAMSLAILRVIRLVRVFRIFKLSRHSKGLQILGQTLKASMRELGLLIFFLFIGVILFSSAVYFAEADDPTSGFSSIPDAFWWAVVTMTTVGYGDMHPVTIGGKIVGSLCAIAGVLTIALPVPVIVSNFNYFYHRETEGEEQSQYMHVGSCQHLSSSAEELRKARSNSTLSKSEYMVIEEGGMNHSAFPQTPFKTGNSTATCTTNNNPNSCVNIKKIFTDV

SMILES | IC50 [nM]
CCCC[C@H](NC(=O)[C@H](CC(=O)O)NC(=O)[C@H](CCSC)NC(=O)[C@@H](N)CC(N)=O)C(=O)N[C@@H](CCCNC(=N)N)C(=O)N[C@H]1CSSC[C@@H]2NC(=O)[C@H](CCCCN)NC(=O)CNC(=O)[C@H](Cc3ccccc3)NC(=O)[C@H]([C@@H](C)CC)NC(=O)[C@H](CO)NC(=O)CNC(=O)[C@H]([C@@H](C)CC)NC(=O)[C@H](C)NC(=O)[C@H](CCCCN)NC(=O)[C@H](CC(C)C)NC(=O)[C@@H]3CSSC[C@@H](C(=O)N[C@@H](Cc4ccc(O)cc4)C(=O)N4CCC[C@H]4C(=O)N[C@@H](CCCNC(=N)N)C(N)=O)NC(=O)[C@H](CCCCN)NC(=O)[C@H](CSSC[C@H](NC(=O)[C@H](CCC(=O)O)NC(=O)[C@H](C(C)C)NC(=O)[C@H](CO)NC(=O)[C@H](C)NC(=O)[C@H](CO)NC1=O)C(=O)N[C@@H](CCCCN)C(=O)N[C@@H](CCC(N)=O)C(=O)N[C@@H](CCCCN)C(=O)N3)NC(=O)[C@H](CCCCN)NC(=O)[C@H](CCCCN)NC(=O)[C@H](CC(N)=O)NC(=O)[C@H](CCSC)NC2=O [Compound 15] (H-NMD[Nle]RCSASVECKQKCLKAIGSIFGKCMNKKCKCYPR-NH2; disulfide 6-27, 12-32, 16-34) | 0.12
CC[C@H](C)[C@@H]1NC(=O)[C@H](CCCCN)NC(=O)[C@H](CC(C)C)NC(=O)[C@@H]2CSSC[C@@H](C(=O)N[C@@H](Cc3ccc(O)cc3)C(=O)N3CCC[C@H]3C(=O)N[C@@H](CCCNC(=N)N)C(N)=O)NC(=O)[C@H](CCCCN)NC(=O)[C@@H]3CSSC[C@H](NC(=O)[C@H](CCC(=O)O)NC(=O)[C@H](C(C)C)NC(=O)[C@H](CO)NC(=O)[C@H](C)NC(=O)[C@H](CO)NC(=O)[C@@H](NC(=O)[C@H](CCCNC(=N)N)NC(=O)[C@H](CCSC)NC(=O)[C@H](CC(=O)O)NC(=O)[C@H](CCSC)NC(=O)[C@@H](N)CC(N)=O)CSSC[C@H](NC(=O)[C@H](CCCCN)NC(=O)CNC(=O)[C@H](Cc4ccccc4)NC(=O)[C@H]([C@@H](C)CC)NC(=O)[C@H](CO)NC(=O)CNC1=O)C(=O)N[C@@H](CCSC)C(=O)N[C@@H](CC(N)=O)C(=O)N[C@@H](CCCCN)C(=O)N[C@@H](CCCCN)C(=O)N3)C(=O)N[C@@H](CCCCN)C(=O)N[C@@H](CCC(N)=O)C(=O)N[C@@H](CCCCN)C(=O)N2 [Compound 57] (H-NMDMRCSASVECKQKCLKIGSIFGKCMNKKCKCYPR-NH2; disulfide 6-26, 12-31, 16-33) | 0.11
CC[C@H](C)[C@@H]1NC(=O)[C@H](CO)NC(=O)CNC(=O)[C@H](CCC(=O)O)NC(=O)[C@H](C)NC(=O)[C@H](CCCCN)NC(=O)[C@H](CC(C)C)NC(=O)[C@@H]2CSSC[C@@H](C(=O)N[C@@H](Cc3ccc(O)cc3)C(=O)N3CCC[C@H]3C(=O)N[C@@H](CCCNC(=N)N)C(N)=O)NC(=O)[C@H](CCCCN)NC(=O)[C@@H]3CSSC[C@H](NC(=O)[C@H](CCC(=O)O)NC(=O)[C@H](C(C)C)NC(=O)[C@H](CO)NC(=O)[C@H](C)NC(=O)[C@H](CO)NC(=O)[C@@H](NC(=O)[C@H](CCCNC(=N)N)NC(=O)[C@H](CCSC)NC(=O)[C@H](CC(=O)O)NC(=O)[C@H](CCSC)NC(=O)[C@@H](N)CC(N)=O)CSSC[C@H](NC(=O)[C@H](CCCCN)NC(=O)CNC(=O)[C@H](Cc4ccccc4)NC1=O)C(=O)N[C@@H](CCSC)C(=O)N[C@@H](CC(N)=O)C(=O)N[C@@H](CCCCN)C(=O)N[C@@H](CCCCN)C(=O)N3)C(=O)N[C@@H](CCCCN)C(=O)N[C@@H](CCC(N)=O)C(=O)N[C@@H](CCCCN)C(=O)N2 [Compound 59] (H-NMDMRCSASVECKQKCLKAEGSIFGKCMNKKCKCYPR-NH2; disulfide 6-27, 12-32, 16-34) | 0.035
CC[C@H](C)[C@@H]1NC(=O)[C@H](CO)NC(=O)CNC(=O)[C@H](CCCNC(=N)N)NC(=O)[C@H](C)NC(=O)[C@H](CCCCN)NC(=O)[C@H](CC(C)C)NC(=O)[C@@H]2CSSC[C@@H](C(=O)N[C@@H](Cc3ccc(O)cc3)C(=O)N3CCC[C@H]3C(=O)N[C@@H](CCCNC(=N)N)C(N)=O)NC(=O)[C@H](CCCCN)NC(=O)[C@@H]3CSSC[C@H](NC(=O)[C@H](CCC(=O)O)NC(=O)[C@H](C(C)C)NC(=O)[C@H](CO)NC(=O)[C@H](C)NC(=O)[C@H](CO)NC(=O)[C@@H](NC(=O)[C@H](CCCNC(=N)N)NC(=O)[C@H](CCSC)NC(=O)[C@H](CC(=O)O)NC(=O)[C@H](CCSC)NC(=O)[C@@H](N)CC(N)=O)CSSC[C@H](NC(=O)[C@H](CCCCN)NC(=O)CNC(=O)[C@H](Cc4ccccc4)NC1=O)C(=O)N[C@@H](CCSC)C(=O)N[C@@H](CC(N)=O)C(=O)N[C@@H](CCCCN)C(=O)N[C@@H](CCCCN)C(=O)N3)C(=O)N[C@@H](CCCCN)C(=O)N[C@@H](CCC(N)=O)C(=O)N[C@@H](CCCCN)C(=O)N2 [Compound 60] (H-NMDMRCSASVECKQKCLKARGSIFGKCMNKKCKCYPR-NH2; disulfide 6-27, 12-32, 16-34) | 0.035
CC[C@H](C)[C@@H]1NC(=O)[C@H](CO)NC(=O)CNC(=O)[C@H](C)NC(=O)[C@H](CCCCN)NC(=O)[C@H](CC(C)C)NC(=O)[C@@H]2CSSC[C@@H](C(=O)N[C@@H](Cc3ccc(O)cc3)C(=O)N3CCC[C@H]3C(=O)N[C@@H](CCCNC(=N)N)C(N)=O)NC(=O)[C@H](CCCCN)NC(=O)[C@@H]3CSSC[C@H](NC(=O)[C@H](CCC(=O)O)NC(=O)[C@H](C(C)C)NC(=O)[C@H](CO)NC(=O)[C@H](C)NC(=O)[C@H](CO)NC(=O)[C@@H](NC(=O)[C@H](CCCNC(=N)N)NC(=O)[C@H](CCSC)NC(=O)[C@H](CC(=O)O)NC(=O)[C@H](CCSC)NC(=O)[C@@H](N)CC(N)=O)CSSC[C@H](NC(=O)[C@H](CCCCN)NC(=O)CNC(=O)[C@H](Cc4ccccc4)NC1=O)C(=O)N[C@@H](CCSC)C(=O)N[C@@H](CC(N)=O)C(=O)N[C@@H](CCCCN)C(=O)N[C@@H](CCCCN)C(=O)N3)C(=O)N[C@@H](CCCCN)C(=O)N[C@@H](CCC(N)=O)C(=O)N[C@@H](CCCCN)C(=O)N2 [Compound 61] (H-NMDMRCSASVECKQKCLKAGSIFGKCMNKKCKCYPR-NH2; disulfide 6-26, 12-31, 16-33) | 0.4
CCCC[C@H](NC(=O)[C@H](CC(=O)O)NC(=O)[C@H](CCCC)NC(=O)[C@@H](N)CO)C(=O)N[C@@H](CCCNC(=N)N)C(=O)N[C@H]1CSSC[C@@H]2NC(=O)[C@H](CCCCN)NC(=O)CNC(=O)[C@H](Cc3ccccc3)NC(=O)[C@H]([C@@H](C)CC)NC(=O)[C@H](CO)NC(=O)CNC(=O)[C@H]([C@@H](C)CC)NC(=O)[C@H](C)NC(=O)CNC(=O)[C@H](CC(C)C)NC(=O)[C@@H]3CSSC[C@@H](C(=O)N[C@@H](Cc4ccc(O)cc4)C(=O)N4CCC[C@H]4C(=O)N[C@@H](CCCNC(=N)N)C(N)=O)NC(=O)[C@H](CCCCN)NC(=O)[C@H](CSSC[C@H](NC(=O)[C@H](CCC(=O)O)NC(=O)[C@H](C(C)C)NC(=O)[C@H](CO)NC(=O)[C@H](C)NC(=O)[C@H](CO)NC1=O)C(=O)N[C@@H](CCCCN)C(=O)N[C@@H](CCC(N)=O)C(=O)N[C@@H](CCCCN)C(=O)N3)NC(=O)[C@H](CCCCN)NC(=O)[C@H](CCCCN)NC(=O)[C@H](CC(N)=O)NC(=O)[C@H](CCSC)NC2=O [Compound 77] (H-S[Nle]D[Nle]RCSASVECKQKCLGAIGSIFGKCMNKKCKCYPR-NH2; disulfide 6-27, 12-32, 16-34) | 0.13
CCCC[C@H](NC(=O)[C@H](CC(=O)O)NC(=O)[C@H](CCCC)NC(=O)[C@@H](N)CO)C(=O)N[C@@H](CCCNC(=N)N)C(=O)N[C@H]1CSSC[C@@H]2NC(=O)[C@H](CCCCN)NC(=O)CNC(=O)[C@H](Cc3ccccc3)NC(=O)[C@H]([C@@H](C)CC)NC(=O)[C@H](CO)NC(=O)CNC(=O)[C@H]([C@@H](C)CC)NC(=O)[C@H](C)NC(=O)[C@H](C)NC(=O)[C@H](CC(C)C)NC(=O)[C@@H]3CSSC[C@@H](C(=O)N[C@@H](Cc4ccc(O)cc4)C(=O)N4CCC[C@H]4C(=O)N[C@@H](CCCNC(=N)N)C(N)=O)NC(=O)[C@H](CCCCN)NC(=O)[C@H](CSSC[C@H](NC(=O)[C@H](CCC(=O)O)NC(=O)[C@H](C(C)C)NC(=O)[C@H](CO)NC(=O)[C@H](C)NC(=O)[C@H](CO)NC1=O)C(=O)N[C@@H](C)C(=O)N[C@@H](CCC(N)=O)C(=O)N[C@@H](CC(C)C)C(=O)N3)NC(=O)[C@H](CCCCN)NC(=O)[C@H](CCCCN)NC(=O)[C@H](CC(N)=O)NC(=O)[C@H](CCSC)NC2=O [Compound 81] (H-S[Nle]D[Nle]RCSASVECAQLCLAAIGSIFGKCMNKKCKCYPR-NH2; disulfide 6-27, 12-32, 16-34) | 0.22
CCCC[C@H](NC(=O)[C@H](CC(=O)O)NC(=O)[C@H](CCCC)NC(=O)[C@@H](N)CO)C(=O)N[C@@H](CCCNC(=N)N)C(=O)N[C@H]1CSSC[C@@H]2NC(=O)[C@H](CCCCN)NC(=O)CNC(=O)[C@H](Cc3ccccc3)NC(=O)[C@H]([C@@H](C)CC)NC(=O)[C@H](CO)NC(=O)CNC(=O)[C@H]([C@@H](C)CC)NC(=O)[C@H](C)NC(=O)[C@H](CCCCN)NC(=O)[C@H](CC(C)C)NC(=O)[C@@H]3CSSC[C@@H](C(=O)N[C@@H](Cc4ccc(O)cc4)C(=O)N4CCC[C@H]4C(=O)N[C@@H](CCCNC(=N)N)C(N)=O)NC(=O)[C@H](CCCCN)NC(=O)[C@H](CSSC[C@H](NC(=O)[C@H](CCC(=O)O)NC(=O)[C@H](C(C)C)NC(=O)[C@H](CC(C)C)NC(=O)[C@H](C)NC(=O)[C@H](CO)NC1=O)C(=O)N[C@@H](CCCCN)C(=O)N[C@@H](CCC(N)=O)C(=O)N[C@@H](CCCCN)C(=O)N3)NC(=O)[C@H](CCCCN)NC(=O)[C@H](CCCCN)NC(=O)[C@H](CC(N)=O)NC(=O)[C@H](CCSC)NC2=O [Compound 89] (H-S[Nle]D[Nle]RCSALVECKQKCLKAIGSIFGKCMNKKCKCYPR-NH2; disulfide 6-27, 12-32, 16-34) | 2.7
